Values after ≈ are worked out from the molar mass of the structure shown. Read-outs that look alike come from different tables or passages of the source.
How the values were obtained:
[1] = test system: Cryptococcus neoformans; experiment: Antifungal broth microdilution MIC (50% growth inhibition, 48 h); format: cell-based; settings: Cryptococcus neoformans, read-out: MIC
Procedure: (§1) Serial dilutions (from 128 μg/mL to 0.06 μg/mL) of the tested compounds and control drugs (fluconazole, itraconazole and amphotericin) (in triplicates), were screened against clinical isolates of Candida albicans, Candida auris, Candida glabrata, Candida parapsilosis, Candida tropicalis, Candida krusei, Cryptococcus neoformans, Cryptococcus gattii and Aspergillus fumigatus species using the broth microdilution method according to the Clinical and Laboratory Standards Institute guidelines. MICs were determined as the lowest concentration of the compounds that inhibited the fungal growth by 50% after incubation at 35 °C for 24 h (for Candida and Aspergillus), or 48 h (for Cryptococcus). The minimum fungicidal concentration (MFC) of these compounds was tested by plating 4 μL from wells with no growth onto YPD agar plates. The plates were incubated at 37 °C for 24 hours before recording the MFC, which was categorized as the lowest concentration that reduced fungal growth by 99.9% [45]. The experiment was repeated three independent times.

[2] = test system: Cryptococcus gattii; experiment: as above; format: cell-based; settings: Cryptococcus gattii, read-out: MIC
Procedure: as §1

[3] = test system: Aspergillus fumigatus; experiment: Antifungal broth microdilution MIC (50% growth inhibition); format: cell-based; settings: Aspergillus fumigatus, read-out: MIC
Procedure: as §1

[4] = test system: Candida parapsilosis; experiment: as above; format: cell-based; settings: Lodderomyces parapsilosis, read-out: MIC
Procedure: as §1

[5] = test system: E. coli JW55031 (tolC-mutant); experiment: microbe, parasite or virus in culture; format: cell-based, Escherichia coli; settings: Escherichia coli
Procedure: (§2) The minimum inhibitory concentrations (MICs) of the tested compounds and control drugs against clinically-relevant bacterial strains were determined using the broth microdilution method, according to guidelines outlined by the Clinical and Laboratory Standards Institute (CLSI), or as described previously.
(§3) Initial screening of the bisphenylthiazoles against Gram-positive and Gram-negative bacteria. Bacterial strains, (except C. difficile that was grown anaerobically on brain heart infusion supplemented agar at 37° C for 48 hours), were grown aerobically overnight on tryptone soy agar plates at 37° C. Afterwards, a bacterial solution equivalent to 0.5 McFarland standard was prepared and diluted in cation-adjusted Mueller-Hinton broth (CAMHB) (for S. aureus, and E. coli) to achieve a bacterial concentration of about 5 × 10^5 CFU/mL. C. difficile was diluted in brain heart infusion supplemented broth, supplemented with yeast extract, hemin and vitamin K to achieve a bacterial concentration of about 5 × 10^5 CFU/mL. Compounds and control drugs were added in the first row of the 96 -well plates, and serially diluted with the corresponding media containing bacteria. Plates were then, incubated aerobi cally at 37° C for 18-20 hours (for S. aureus and E. coli). C. difficile was incubated anaerobically at 37° C for 48 hours. […]
(§4) the visual growth of bacteria.

[6] = test system: Lactobacillus casei ATCC-334; experiment: Broth microdilution MIC against normal human microbiota; format: cell-based; settings: Lacticaseibacillus casei, ATCC334
Procedure: (§5) Broth microdilution was utilized to determine the activity of bisphenylthiazoles against the human gut microflora as described elsewhere. A bacterial solution equivalent to 0.5 McFarland standards was prepared and diluted in MRS broth to achieve a bacterial concentration of approximately 5 x 10^5 CFU/mL. Then, compounds/control antifungals (in triplicates), were added to the plates and serially diluted with media containing bacteria. The plates were incubated for 48 hours at 37 °C before recording the MIC values. The experiment was repeated three independent times.

[7] = test system: Lactobacillus crispatus HM-370; experiment: as above; format: cell-based; settings: HM370
Procedure: as §5

[8] = test system: Lactobacillus gasseri HM-400; experiment: as above; format: cell-based; settings: HM400
Procedure: as §5

[9] = test system: Candida tropicalis; experiment: Antifungal broth microdilution MIC (50% growth inhibition) and MFC; format: cell-based; settings: Candida tropicalis, ATCC1369, C. tropicalis ATCC 1369; for MIC: read-out: MIC
Procedure: as §1

[10] = test system: Candida krusei; experiment: as above; format: cell-based; settings: Pichia kudriavzevii; for MIC: read-out: MIC
Procedure: as §1

[11] = test system: Candida auris; experiment: as above; format: cell-based
Procedure: as §1

[12] = test system: Candida glabrata; experiment: as above; format: cell-based; settings: Nakaseomyces glabratus, read-out: MIC
Procedure: as §1

[13] = test system: Candida albicans; experiment: as above; format: cell-based; settings: Candida albicans; for MIC: read-out: MIC
Procedure: as §1

[14] = test system: MRSA USA300; experiment: Broth microdilution MIC, initial antibacterial screening; format: cell-based, S. aureus; settings: Staphylococcus aureus; MRSA USA300; read-out: MIC
Procedure: as §2, §3, §4

[15] = test system: C. difficile ATCC BAA1870; experiment: Broth microdilution MIC, initial antibacterial screening (anaerobic); format: cell-based, Clostridioides difficile; settings: Clostridioides difficile, ATCCBAA1870, read-out: MIC
Procedure: as §2, §3, §4

[16] = GSH trap (reactive metabolite); format: in vitro ADME; settings: reactive metabolite formation
[17] = test system: monkey kidney epithelial cells (Vero); experiment: In vitro cytotoxicity, MTS assay; settings: Vero, 24 h exposure, MTS
Procedure: (§6) Fig 2 In vitro cytotoxicity assay of bisphenylthiazole compounds 7, 16 and 17 (tested in triplicates at 32, 64 and 128 μg/mL) against: A) human colorectal cells (Caco-2), and B) monkey kidney epithelial cells (Vero) after 24-hours exposure time, using the MTS 3-(4,5-dimethylthiazol-2-yl)-5-(3-carboxymethoxyphenyl)-2-(4-sulfophenyl)-2H-tetrazolium) assay. The data represent the percentage of viable Caco-2 or Vero cells measured as the average absorbance relative to DMSO after exposure to the tested compounds. Dimethyl sulfoxide (DMSO) was used as a negative control. Error bars represent the standard deviation values.
(§7) To explore the tolerability of bisphenylthiazoles, their cytotoxicity profile was assessed in human colorectal adenocarcinoma (Caco-2) and monkey kidney epithelial cells (Vero) as described earlier. Briefly, compounds were incubated with the cells for 24 hours. Then, cells were incubated with MTS reagent for 3 hours before measuring the absorbance values (OD490). The experiment was repeated in two independent times.

[18] = test system: human colorectal cells (Caco-2); experiment: In vitro cytotoxicity, MTS assay; settings: human, 24 h
Procedure: as §6, §7

[19] = test system: E. coli BW25113 (wild-type); experiment: Broth microdilution MIC, initial antibacterial screening; format: cell-based, Escherichia coli; settings: Escherichia coli, read-out: MIC
Procedure: as §2, §3, §4

[20] = test system: Candida strains; experiment: Minimum fungicidal concentration, summary over Candida strains; format: cell-based; settings: strains of Table 6
Procedure: as §1

[21] = test system: Candida auris; experiment: Checkerboard assay of compound 17 with standard antifungals; format: cell-based; settings: for Interpretation of interaction: antifungal combined with compound 17; for MIC Combined, Antifungal: antifungal in combination with compound 17; for MIC: Candidozyma auris, checkerboard, agent alone
Procedure: To evaluate the interactions between bisphenylthiazoles and the standard antifungal agents (fluconazole, amphotericin B, 5-fluorocytosine and caspofungin) against 2 C. auris clinical isolates, a standard checkerboard assay was utilized as described in previous studies. The fractional inhibitory concentration index (FICI) was calculated for each interaction. Interactions where the FICI was ≤0.5 were categorized as synergistic (SYN). FICI values of >0.5–1.25 were categorized as additive (ADD). FICI values of >1.25–4 were categorized as indifferent, and FICI values of > 4 were categorized as antagonistic. The experiment was repeated three independent times.

[22] = ATCC22019, C. parapsilosis ATCC 22019
[23] = ATCC34135, C. krusei ATCC 34135
[24] = Candidozyma auris, C. auris 381, read-out: MIC
[25] = Candidozyma auris, C. auris 382, read-out: MIC
[26] = Candidozyma auris, C. auris 387, read-out: MIC
[27] = ATCC10231, C. albicans ATCC 10231
[28] = C. albicans NR-29448 (fluconazole-resistant)
[29] = Candida auris 381 (azole-sensitive)
[30] = Candida auris 385 (azole-resistant)

## Cc1nc(-c2ccc(-c3ccccc3)cc2)sc1-c1nnc(NCCN)o1 [Compound 7, N-{5-[2-((1,1’-Biphenyl)-4-yl)-4-methylthiazol-5-yl]-1,3,4-oxadiazol-2-yl}ethane-1,2-diamine]
[1]; C. neoformans NR 41298
  MIC: 2 µg/mL (≈ 5.3 µM)
[1]; C. neoformans NR 41300
  MIC: 4 µg/mL (≈ 10.6 µM)
[1]; C. neoformans NR 48770
  MIC: 2 µg/mL (≈ 5.3 µM)
[2]; C. gattii NR 43209
  MIC: 2 µg/mL (≈ 5.3 µM)
[2]; C. gattii NR 43210
  MIC: 2 µg/mL (≈ 5.3 µM)
[3]; A. fumigatus NR 35303
  MIC: 16 µg/mL (≈ 42.4 µM)
[3]; A. fumigatus NR 35304
  MIC: 8 µg/mL (≈ 21.2 µM)
[4]; [22]
  MIC: 2 µg/mL (≈ 5.3 µM)
[4]; C. parapsilosis CAB 502638
  MIC: 2 µg/mL (≈ 5.3 µM)
[5]
  MIC: 64 µg/mL (≈ 170 µM)
[6]; Lactobacillus casei ATCC-334, read-out: MIC
  MIC: > 128 µg/mL
[7]; Lactobacillus crispatus HM-370, read-out: MIC
  MIC: > 128 µg/mL
[8]; Lactobacillus gasseri HM-400, read-out: MIC
  MIC: 64 µg/mL (≈ 170 µM)
[9]
  MIC: 8 µg/mL (≈ 21.2 µM)
[10]; [23]
  MIC: 2 µg/mL (≈ 5.3 µM)
[10]; C. krusei CAB 396420
  MIC: 2 µg/mL (≈ 5.3 µM)
[11]; [24]
  MIC: 8 µg/mL (≈ 21.2 µM)
[11]; [25]
  MIC: 8 µg/mL (≈ 21.2 µM)
[11]; Candidozyma auris, C. auris 383, read-out: MIC
  MIC: 2 µg/mL (≈ 5.3 µM)
[11]; Candidozyma auris, C. auris 384, read-out: MIC
  MIC: 4 µg/mL (≈ 10.6 µM)
[11]; Candidozyma auris, C. auris 385, read-out: MIC
  MIC: 4 µg/mL (≈ 10.6 µM)
[11]; Candidozyma auris, C. auris 386, read-out: MIC
  MIC: 8 µg/mL (≈ 21.2 µM)
[11]; [26]
  MIC: 8 µg/mL (≈ 21.2 µM)
[11]; Candidozyma auris, C. auris 388, read-out: MIC
  MIC: 4 µg/mL (≈ 10.6 µM)
[11]; Candidozyma auris, C. auris 389, read-out: MIC
  MIC: 8 µg/mL (≈ 21.2 µM)
[11]; Candidozyma auris, C. auris 390, read-out: MIC
  MIC: 2 µg/mL (≈ 5.3 µM)
[12]; ATCC66032, C. glabrata ATCC 66032
  MIC: 2 µg/mL (≈ 5.3 µM)
[12]; C. glabrata ATCC MYA-2950
  MIC: 1 µg/mL (≈ 2.65 µM)
[13]; [27]
  MIC: 8 µg/mL (≈ 21.2 µM)
[13]; [28]
  MIC: 16 µg/mL (≈ 42.4 µM)
[13]; C. albicans SS5314 (wild-type)
  MIC: 4 µg/mL (≈ 10.6 µM)
[14]
  MIC: 32 µg/mL (≈ 84.8 µM)
[15]
  MIC: > 64 µg/mL
[16]
  GSH trap: -ve
[17]
  concentration up to which non-toxic: ≤ 64 µg/mL
[18]
  concentration up to which non-toxic: ≤ 64 µg/mL
other
  melting point: 145 to 146 °C
[19]
  MIC: > 64 µg/mL

## OC(Cn1cncn1)(Cn1cncn1)c1ccc(F)cc1F [Fluconazole, reference compound]
[20]
  fungistatic or fungicidal activity: fungistatic
[1]; C. neoformans NR 41298
  MIC: 2 µg/mL (≈ 6.53 µM)
[1]; C. neoformans NR 41300
  MIC: 1 µg/mL (≈ 3.27 µM)
[1]; C. neoformans NR 48770
  MIC: 2 µg/mL (≈ 6.53 µM)
[2]; C. gattii NR 43209
  MIC: 4 µg/mL (≈ 13.1 µM)
[2]; C. gattii NR 43210
  MIC: 4 µg/mL (≈ 13.1 µM)
[4]; [22]
  MIC: 1 µg/mL (≈ 3.27 µM)
[4]; C. parapsilosis CAB 502638
  MIC: 0.5 µg/mL (≈ 1.63 µM)
[6]
  MIC: > 128 µg/mL
[7]; Lactobacillus crispatus
  MIC: > 128 µg/mL
[8]; Lactobacillus gasseri
  MIC: > 128 µg/mL
[9]
  MFC: > 128 µg/mL
  MIC: 0.5 µg/mL (≈ 1.63 µM)
[10]; [23]
  MIC: 16 µg/mL (≈ 52.2 µM)
[10]; C. krusei CAB 396420
  MFC: > 128 µg/mL
  MIC: 16 µg/mL (≈ 52.2 µM)
[11]; C. auris 383
  MIC: >128 µg/mL
[11]; C. auris 384
  MIC: >128 µg/mL
[11]; C. auris 385
  MIC: >128 µg/mL
[11]; C. auris 386
  MIC: >128 µg/mL
[11]; C. auris 389
  MIC: >128 µg/mL
[11]; C. auris 390
  MIC: >128 µg/mL
[11]; Candida auris 390
  MFC: >128 µg/mL
[11]; [24]
  MIC: 1 µg/mL (≈ 3.27 µM)
[11]; [25]
  MIC: 8 µg/mL (≈ 26.1 µM)
[11]; [26]
  MIC: 8 µg/mL (≈ 26.1 µM)
[11]; Candidozyma auris, Candida auris 389, read-out: MFC
  MFC: > 128 µg/mL
[13]; [27]
  MFC: > 128 µg/mL
  MIC: 1 µg/mL (≈ 3.27 µM)
[13]; [28]
  MIC: > 128 µg/mL
[13]; C. albicans SS5314 (wild-type)
  MIC: 1 µg/mL (≈ 3.27 µM)
[13]; C. albicans NR-29448
  MFC: > 128 µg/mL
[21]; [29]
  Interpretation of interaction: ADD (FICI values of >0.5–1.25 were categorized as additive (ADD))
  MIC Combined, Antifungal: 1 µg/mL
  MIC: 1 µg/mL
[21]; [30]
  Interpretation of interaction: ADD (FICI values of >0.5–1.25 were categorized as additive (ADD))
  MIC Combined, Antifungal: 0.25 µg/mL
  MIC: > 128 µg/mL

Reference: paper PMC8568133, “Evaluation of bisphenylthiazoles as a promising class for combating multidrug-resistant fungal infections” (PLoS ONE, 2021)
